{
  "source": "patent US20030113369A1",
  "about": "“Liposomes with enhanced circulation time and method of treatment” (priority 1991, published 2003)",
  "key": {"[1]": {"test_system": "C-26 colon carcinoma", "experiment": "Tumor treatment with conventional doxorubicin liposomes", "assay_type": "in vivo, mice", "settings": "10 mg/kg on days 8, 15 and 22; FIG. 17", "procedure": "Conventional doxorubicin liposomes (L-DOX) were prepared according to published methods (Gabizon, 1988). Briefly, a mixture of eggPG, Egg,PC, cholesterol and α-TC in a mole ratio of 0.3:1.4:1:0.2 was made in chloroform. The solvent was removed under reduced presssure and the dry lipid film hydrated with a solution of 155 mM NaCl containing 2-5 mg doxorubicin HCl. The resulting MLV preparation was down-sized by extrusion through a series of polycarbonate membranes to a final size of about 250 nm. The free (unentrapped) drug was removed by passing the suspension over a bed of Dowex resin. The final doxorubicin concentration was about […] lipid.\nThree groups of 7 mice were inoculated subcutaneously with 10^5-10^6 C-26 colon carcinoma cells as detailed in Example 15. The animals were divided into three, 7-animal treatment groups, one of which receivd 0.5 ml of saline vehicle as a control. The other two groups were treated with doxorubicin either as a free drug solution or in the form of L-DOX liposomes at a dose of 10 mg/kg. The treatments were given on days 8, 15 and 22 after tumor cell inoculation. Tumor size was measured on the days treatments were given and day 28."}, "[2]": {"test_system": "syngeneic mammary carcinoma cells (MC2)", "settings": "cited from earlier work"}, "[3]": {"test_system": "J-6456 lymphoma", "experiment": "Tissue distribution of doxorubicin, subcutaneous tumor", "assay_type": "in vivo, mice", "settings": "heart, muscle, tumor at 4, 24, 48 hours; 10 mg/kg IV", "procedure": "That liposome delivery to the tumor is required for selective drug targeting can be seen from the study reported in Example 12. Here mice were inoculated subcutaneously with the J-6456 lymphoma which formed a solid tumor mass of about 1 cm^3 after one-two weeks. The animals were then injected either with free doxorubicin or doxorubicin loaded into PEG-liposomes at a dose of 10 mg drug per kg body weight. The tissue distribution (heart, muscle, and tumor) of the drug was then assayed at 4, 24, and 48 hours after drug administration.\nTwo groups of twelve mice were injected subcutaneously with 10^6 J-6456 tumor cells. After 14 days the tumors had grown to about 1 cm^3 in size in the subcutaneous space and the animals were injected IV (tail vein) with 10 mg/kg doxorubicin as free drug (group 1) or encapsulated in PEG liposomes (group 2). At 4, 24, and 48 hours after drug injection, four animal in each group were sacrificed, and sections of tumor, heart, and muscle tissue were excised. Each tissue was weighed, then homogenized and extracted for determination of doxorubicin concentration using a standard florescence assay procedure Gabizon, 1989). The total drug measured in each homogenate was expressed as μg drug per gram tissue."}, "[4]": {"experiment": "Maximum tolerated dose", "settings": "in mice; highest dose without death or dramatic weight loss within 14 days", "procedure": "Solutions of free doxorubicin HCl, epirubicin HCl were obtained as above. PEG-liposome formulations containing either doxorubicin or epirubicin, at a drug concentration of 70-90 μg compound/μmole liposome lipid, were prepared as described in Example 10. Conventional liposomes (no PEG-derivatized lipid) were loaded with doxorubicin to a drug concentration of […] lipid using standard techniques.\nEach of the five formulations was administered to 35 mice, at a dose between 10 and 40 mg drug/kg body weight, in 5 mg/kg increments, with five receiving each dosage."}, "[5]": {"experiment": "Plasma kinetics of free and liposomal doxorubicin", "settings": "dogs", "description": "(§1) The PEG-PE lipids were formulated with hydrogenated soy bean PC(HSPC) and cholesterol, in a mole ratio of 0.15:1.85:1 (PEG-Dox).\n(§2) A doxorubicin HCl solution (the marketed product, Free Dox) was obtained from the hospital pharmacy.\n(§3) Free DOX, PEG-Dox and HPI-Dox were diluted to the same concentration (1.8 mg/ml) using unbuffered 5% glucose on the day of injection. Dogs were randomized into three groups (2 females, 1 male) and weighed. An 18 gauge Venflon IV catheter was inserted in a superficial limb vein in each animal. The drug and liposome suspensions were injected by quick bolus (15 seconds). Four ml blood samples were before injection and at 5, 10, 15, 30, 45 min, 1, 2, 4, 6, 8, 10, 12, 24, 48 and 72 hours post injection. In the liposome groups blood was also drawn after 96, 120, 144, and 168 hours. Plasma was separated from the formed elements of the whole blood by centrifugation and doxorubicin concentrations assayed by standard fluorescence techniques. The amount of doxorubicin remaining in the blood was expressed as a percentage of peak concentration of labeled drug, measured immediately after injection."}, "[6]": {"test_system": "C-26 colon carcinoma", "settings": "cited from earlier work"}, "[7]": {"experiment": "Multidose toxicity of doxorubicin: weight change and histopathology", "assay_type": "in vivo, mice", "settings": "four weekly 10 mg/kg, sacrificed day 29", "procedure": "FIG. 20 is a plot of weight changes in normal Sabra male mice untreated (open circles) or treated with four weekly intravenous injections on days […] with a 10 mg/kg dose of either free doxorubicin (open triangles) or PEG liposomes with entrapped doxorubicin (open squares); and\nSimilar reduced toxicity results were obtained when free doxorubicin was compared with PEG liposomes with entrapped doxorubicin, in groups of mice receiving four weekly injections of 10 mg/kg doxorubicin on days 1, 8, 15 and 22."}, "[8]": {"test_system": "C-26 colon carcinoma", "experiment": "Tumor treatment, subcutaneous colon carcinoma", "assay_type": "in vivo, mice", "procedure": "Vesicle-forming lipids containing PEG-PE, PG, PHEPC, and cholesterol and α-TC in a mole ratio of 0.15:0.3:1.85:1:0.2 were dissolved in chloroform to a final lipid concentration of 25 μmol phospholipid/ml. The lipid mixture was dried into a thin film under reduced pressure. […] The MLV suspension was frozen in a dry ice acetone bath and thawed three times and sized to 80-100 nm by extrusion as detailed above. An ammonium ion gradient was created substantially as described in Example 10. The liposomes were loaded with epirubicin, and free (unbound drug) removed also as described in Example 10 for doxorubicin. […] Epirubicin HCl and doxorubicin HCL, the commercial products, were obtained from the hospital pharmacy.\nAbout 10^6 cells C-26 colon carcinoma cells were injected subcutaneously into three groups of 35 mice. The groups were subdivided into five 7-animal subgroups.\nEach group was followed for 28 days. Tumor size was measured for each animal on days 5, 7, 12, 14, 17, 21, 24 and 28. The growth of the tumor in each subgroup (expressed as the mean tumor size of the individual animals) at each time point is plotted in FIG. 15A.\nThe same number of animals were inoculated with the same number of tumor cells as described above."}, "[9]": {"test_system": "J-6456 lymphoma", "experiment": "Tissue distribution of doxorubicin, ascites tumor", "settings": "for Plasma: 10 mg/kg doxorubicin IV; for Plasma / Ascites Tumor (tumor & fluid) / Heart / Liver: value (SD); for Ascites Tumor (tumor & fluid) / Heart / Liver: 10 mg/kg", "description": "Two groups of 15 mice were injected interperitoneally with 10^6 J-6456 lymphoma cells. The tumor was allowed to grow for one-two weeks at which time 5 ml of ascites fluid had accumulated. The mice were then injected IV with 10 mg/kg doxorubicin either in free drug form (group 1) or entrapped in PEG liposomes as described in Example 11 (group 2). Ascites fluid was withdrawn from three animals in each group at 1, 4, 15, 24 and 48 hours post treatment. The ascites tumor was further fractionated into cellular and fluid components by centrifugation (15 min. 5000 rpm). Free and liposome-bound drug in the supernatant was determined by passing the fluid through a Dowex 50-WX-4 resin, as above, to remove free drug. The doxorubicin concentrations in the ascites fluid, tumor cells, supernatant, and resin-treated supernatant were then determined, and from these values, μg doxorubicin/gram tissue was calculated.\nIn a similar experiment two groups of twelve mice were implanted IP with the J-6456 lymphoma and the tumor was allowed to establish as described above. Once the ascites tumor had reached about 5 ml, one group of animals was injected with 10 mg/kg free doxorubicin and the other group with 10 mg/kg doxorubicin entrapped in PEG liposomes. At 4, 24 and 48 hours post treatment ascites fluid and blood samples were withdrawn from four animals in each group and the animals were sacrificed. Sections of liver and heart tissue were excised from each animal, homogenized and drug concentration assayed as described above. Plasma was separated from whole blood by centrifugation and drug concentration assayed as stated above. Doxorubicin concentration in the ascites fluid was also measured. Plasma and ascites fluid levels are expressed as pg doxorubicin per ml and liver and heart tissue values as pg doxorubicin per gram tissue. The standard deviations for each measurement is shown in parentheses."}, "[10]": {"test_system": "J-6456 lymphoma", "experiment": "Tumor treatment, survival after IP lymphoma implantation", "assay_type": "in vivo, mice", "settings": "10 mg/kg IV", "procedure": "A doxorubicin HCl solution to be used as the free drug control was obtained from a hospital pharmacy. A total of 30 mice were injected IP with 10^6 J-6456 lymphoma cells. The animals were divided into three 10-animal groups, each of which was injected IV with 0.4 ml of either saline vehicle, 10 mg/kg doxorubicin solution or the doxorubicin-loaded liposomes at 10 mg/kg. Each group was followed for 100 days for number of surviving animals. The percent survivors for each treatment group is plotted in FIG. 16."}, "[11]": {"experiment": "Blood biochemistry", "assay_type": "in vivo, mice", "settings": "pooled serum", "procedure": "Blood chemistries were measured in groups of both male and female mice receiving the same dose and injection schedule of free or PEG-liposomes with entrapped epirubicin as above."}, "[12]": {"settings": "dog, in vivo", "description": "as §1, §2, §3"}},
  "note": "Entries after “also recorded” stand apart in the source; their conditions may differ.",
  "data": [
    {"smiles": "COc1cccc2c1C(=O)c1c(O)c3c(c(O)c1C2=O)C[C@@](O)(C(=O)CO)C[C@@H]3O[C@H]1C[C@H](N)[C@H](O)[C@H](C)O1.Cl", "note": "[Free DOX, Doxorubicin HCl]", "values": [
      {"measurement": "tumor growth", "setting": "[1]", "value": "suppressed tumor growth to a modest extent compared with the saline control"},
      {"measurement": "in vitro sensitivity of MC2 cells", "setting": "[2]", "value": "sensitive in vitro"},
      {"measurement": "selective drug accumulation in the tumor", "setting": "[3]", "value": "No selective drug accumulation into the tumor occurred"},
      {"measurement": "Maximum Tolerated Dose", "setting": "[4]", "value": "10 to 12", "unit": "mg/kg"},
      {"measurement": "t1/2", "setting": "[5]", "value": "1.9 to 3.3", "unit": "h"},
      {"measurement": "in vitro activity against C-26 colon carcinoma", "setting": "[6]", "value": "show in vitro activity against this tumor"},
      {"measurement": "histopathology, gonads", "setting": "[7]", "value": "lack of follicular maturation and of spermatogenesis"},
      {"measurement": "histopathology, heart", "setting": "[7]", "value": "mild to moderate myolysis was seen in all (13) mice"},
      {"measurement": "histopathology, kidney", "setting": "[7]", "value": "advanced signs of nephrosis"},
      {"measurement": "histopathology, lungs, adrenals, small bowel, pancreas, urinary bladder", "setting": "[7]", "value": "No damage was observed"},
      {"measurement": "histopathology, spleen", "setting": "[7]", "value": "reversible atrophy of the red and white pulp"},
      {"measurement": "histopathology, liver", "setting": "[7]; listed as free doxorubicin, HCl", "value": "hematopoiesis foci were present in both groups; also recorded: microcytosis was also observed"},
      {"measurement": "survival of the animals at 120 days following tumor implantation", "setting": "[8]; 6 mg/kg on days 1, 8 and 15, seven animals per group", "value": "none"},
      {"measurement": "tumor growth compared with the saline control", "setting": "[8]; IV on days 1, 8 and 15, FIG. 15A", "value": "neither free doxorubicin nor free epirubicin at 6 mg/kg significantly suppressed tumor growth"},
      {"measurement": "Tumor/Heart", "setting": "[9]; 4 hours", "value": 0.0052},
      {"measurement": "Plasma", "setting": "[9]; 4 hours", "value": "0.9 (0.0) μg/ml"},
      {"measurement": "Ascites Tumor (tumor & fluid)", "setting": "[9]; 4 hours", "value": "0.3 (0.1) μg/ml"},
      {"measurement": "Heart", "setting": "[9]; 4 hours", "value": "5.7 (3.4) μg/gram"},
      {"measurement": "Liver", "setting": "[9]; 4 hours", "value": "8.1 (1.4) μg/gram"},
      {"measurement": "Tumor/Heart", "setting": "[9]; 24 hours", "value": 0.04},
      {"measurement": "Plasma", "setting": "[9]; 24 hours", "value": 0.0, "unit": "µg/mL"},
      {"measurement": "Ascites Tumor (tumor & fluid)", "setting": "[9]; 24 hours", "value": "0.1 (0.1) μg/ml"},
      {"measurement": "Heart", "setting": "[9]; 24 hours", "value": "2.5 (0.3) μg/gram"},
      {"measurement": "Liver", "setting": "[9]; 24 hours", "value": "6.2 (4.8) μg/gram"},
      {"measurement": "Tumor/Heart", "setting": "[9]; 48 hours", "value": 0.266},
      {"measurement": "Plasma", "setting": "[9]; 48 hours", "value": 0.0, "unit": "µg/mL"},
      {"measurement": "Ascites Tumor (tumor & fluid)", "setting": "[9]; 48 hours", "value": "0.4 (0.3) μg/ml"},
      {"measurement": "Heart", "setting": "[9]; 48 hours", "value": "1.5 (0.6) μg/gram"},
      {"measurement": "Liver", "setting": "[9]; 48 hours", "value": "6.1 (3.6) μg/gram"},
      {"measurement": "survival relative to the saline group", "setting": "[10]", "value": "little improvement in survival over the saline group"},
      {"measurement": "Albumin", "setting": "[11]; females", "value": 31, "unit": "g/1"},
      {"measurement": "Alk. Phos.", "setting": "[11]; females", "value": 162, "unit": "μ/1"},
      {"measurement": "Calcium", "setting": "[11]; females", "value": 2.9, "unit": "mmol/1"},
      {"measurement": "Chloride", "setting": "[11]; females", "value": 118, "unit": "mmol/1"},
      {"measurement": "Cholesterol", "setting": "[11]; females", "value": 4.7, "unit": "mmol/1"},
      {"measurement": "Creatinine", "setting": "[11]; females", "value": 123, "unit": "μmol/1"},
      {"measurement": "Glucose", "setting": "[11]; females", "value": 2.9, "unit": "mmol/1"},
      {"measurement": "Phosphorus", "setting": "[11]; females", "value": 3.4, "unit": "mmol/1"},
      {"measurement": "Sodium", "setting": "[11]; females", "value": 154, "unit": "mmol/1"},
      {"measurement": "Total protein", "setting": "[11]; females", "value": 57, "unit": "g/1"},
      {"measurement": "Urea", "setting": "[11]; females", "value": 12.5, "unit": "mmol/1"},
      {"measurement": "Uric acid", "setting": "[11]; females", "value": 350, "unit": "μmol/1"},
      {"measurement": "Albumin", "setting": "[11]; males", "value": 21, "unit": "g/1"},
      {"measurement": "Alk. Phos.", "setting": "[11]; males", "value": 129, "unit": "μ/1"},
      {"measurement": "Bilirubin", "setting": "[11]; males", "value": 0, "unit": "μmol/1"},
      {"measurement": "Calcium", "setting": "[11]; males", "value": 1.6, "unit": "mmol/1"},
      {"measurement": "Chloride", "setting": "[11]; males", "value": 117, "unit": "mmol/1"},
      {"measurement": "Cholesterol", "setting": "[11]; males", "value": 6.0, "unit": "mmol/1"},
      {"measurement": "Creatinine", "setting": "[11]; males", "value": 37, "unit": "μmol/1"},
      {"measurement": "Glucose", "setting": "[11]; males", "value": 1.3, "unit": "mmol/1"},
      {"measurement": "Phosphorus", "setting": "[11]; males", "value": 5.2, "unit": "mmol/1"},
      {"measurement": "Sodium", "setting": "[11]; males", "value": 150, "unit": "mmol/1"},
      {"measurement": "Total protein", "setting": "[11]; males", "value": 39, "unit": "g/1"},
      {"measurement": "Urea", "setting": "[11]; males", "value": 12.4, "unit": "mmol/1"},
      {"measurement": "Uric acid", "setting": "[11]; males", "value": 333, "unit": "μmol/1"},
      {"measurement": "AUC", "setting": "[12]", "value": "7.1 to 10.0", "unit": "mg/L"},
      {"measurement": "clearance", "setting": "[12]", "value": "10 to 15", "unit": "mL/min"},
      {"measurement": "Kinetic Pattern", "setting": "[12]; iv", "value": "Bi-exp."},
      {"measurement": "Peak Conc.", "setting": "[12]; iv", "value": "0.4 to 2.2", "unit": "mg/L"}
    ]}
  ]
}
